For this assay, the target named is T1, adenosine 2A receptor (A2AR) (Mus musculus, UniProt Q60613).
T1 construct: gene Adora2a
In words: inhibition of NECA ([…])-stimulated CREB phosphorylation in mouse CD8+ T cells, flow cytometry. The class given is cell-based. (In flow cytometry, cells or beads pass a laser one at a time.)

One may read the IC50 as the concentration at which inhibition is half-maximal. Higher therefore signals lower potency.

T1 sequence (Q60613 whole entry): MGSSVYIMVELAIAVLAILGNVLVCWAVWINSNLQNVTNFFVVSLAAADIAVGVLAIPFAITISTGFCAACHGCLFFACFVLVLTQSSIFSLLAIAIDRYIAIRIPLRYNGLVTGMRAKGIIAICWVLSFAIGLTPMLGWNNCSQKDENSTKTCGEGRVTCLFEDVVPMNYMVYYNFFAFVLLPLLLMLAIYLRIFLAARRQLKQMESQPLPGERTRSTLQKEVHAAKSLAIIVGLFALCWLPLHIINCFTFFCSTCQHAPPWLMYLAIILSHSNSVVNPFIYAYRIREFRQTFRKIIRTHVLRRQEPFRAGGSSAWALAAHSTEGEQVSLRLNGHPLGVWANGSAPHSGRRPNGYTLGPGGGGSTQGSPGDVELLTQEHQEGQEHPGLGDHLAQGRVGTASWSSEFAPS

Substance DZD2269 displayed a concentration for half-maximal inhibition (IC50) of roughly 3 nM.

Values taken from article PMC7150468, “A2AR Antagonism with DZD2269 Augments Antitumor Efficacy of Irradiation in Murine Model” (Journal of Cancer, 2020).
